# Measured values from patent US11130741B2 (Bioimics AB, priority 2016, dated 2021).
# Counter-ions that a name gives are not always drawn. Like-named read-outs stand apart in the source and are kept apart here.
# Assays:
# [1] = test system: Escherichia coli (ATCC25922); assay: MIC, broth microdilution (CLSI), Escherichia coli ATCC25922
# [2] = test system: Staphylococcus aureus subsp. aureus (ATCC29213); assay: MIC, broth microdilution (CLSI), Staphylococcus aureus subsp. aureus ATCC29213; type: cell-based; conditions: ATCC29213, Table 15, read-out: S. aureus ("wound") (MIC)
# [3] = ATCC25922, read-out: E. coli MIC, Table 15, NI = No inhibition
# [4] = ATCC25922, read-out: E. coli MIC
Compound,"MIC [1, 3]",MIC [2],"MIC [1, 4]"
"Cl.NCCN1CCC(Nc2cc(C(F)(F)F)cc3c2Nc2ccc(N4CCC5CCCC54)cc2S3)CC1 (centres unmarked) [compound 340, N-(1-(2-aminoethyl)piperidin-4-yl)-7-(hexahydro-cyclopenta[b]pyrrol-1(2H)-yl)-3-(trifluoromethyl)-10H-phenothiazin-1-amine hydrochloride]",16 µg/mL,4 µg/mL,–
"CC(C)C1CCCN(c2ccc3c(c2)Sc2cc(C(F)(F)F)cc(NC4CCN(CCN)CC4)c2N3)C1.Cl.Cl.Cl (centres unmarked) [compound 320, N-(1-(2-aminoethyl)piperidin-4-yl)-7-(3-isopropyl-piperidin-1-yl)-3-(trifluoromethyl)-10H-phenothiazin-1-amine hydrochloride]",32 µg/mL,4 µg/mL,–
"Cl.Cl.NCCN1CCC(Nc2cc(C(=O)NNc3ccccc3)cc3c2Nc2ccccc2S3)CC1 [compound 281, 1-((1-(2-aminoethyl)piperidin-4-yl)amino)-N′-phenyl-10H-phenothiazine-3-carbohydrazide hydrochloride]",64 µg/mL,32 µg/mL,–
"CCN(C)c1ccc2c(c1)Sc1cc(C(F)(F)F)cc(NC3CCN(CCN)CC3)c1N2.Cl.Cl [compound 339, N1-(1-(2-aminoethyl)piperidin-4-yl)-N7-ethyl-N7-methyl-3-(trifluoromethyl)-10H-phenothiazine-1,7-diamine hydrochloride]",8 µg/mL,4 µg/mL,–
"Cl.Cl.Cl.NCCC1CCN(c2ccc3c(c2)Sc2cc(C(F)(F)F)cc(NC4CCN(CCN)CC4)c2N3)CC1 [compound 273, 7-(4-(2-aminoethyl)piperidin-1-yl)-N-(1-(2-aminoethyl)piperidin-4-yl)-3-(trifluoromethyl)-10H-phenothiazin-1-amine hydrochloride]",32 µg/mL,8 µg/mL,–
"Cl.Cl.Cl.NCCNCC(=O)CNc1cc(C(F)(F)F)cc2c1Nc1ccc(N3CCCC3)cc1S2 [compound 317, 1-((2-aminoethyl)amino)-3-((7-(pyrrolidin-1-yl)-3-(trifluoromethyl)-10H-phenothiazin-1-yl)amino) propan-2-one hydrochloride]",128 µg/mL,64 µg/mL,–
"NC1CCCC(C(=O)Nc2cc(C(F)(F)F)cc3c2Nc2ccc(N4CCNCC4)cc2S3)C1 (centres unmarked) [compound 256, 3-amino-N-(7-(piperazin-1-yl)-3-(trifluoromethyl)-10H-phenothiazin-1-yl)cyclohexane-1-carboxamide]",32 µg/mL,16 µg/mL,–
"Cl.NCCCNc1cc(C(F)(F)F)cc2c1Nc1ccc(Br)cc1S2 [compound 333, N1-(7-bromo-3-(trifluoromethyl)-10H-phenothiazin-1-yl)propane-1,3-diamine hydrochloride]",16 µg/mL,8 µg/mL,–
"CC1CC(C)CN(c2ccc3c(c2)Sc2cc(N4CCN(CCN)CC4)ccc2N3CCCN)C1.Cl.Cl.Cl.Cl (centres unmarked) [compound 286, 3-(3-(4-(2-aminoethyl)piperazin-1-yl)-7-(3,5-dimethyl-piperidin-1-yl)-10H-phenothiazin-10-yl)propan-1-amine hydrochloride]",128 µg/mL,32 µg/mL,–
"NCCCN1c2ccc(C(=O)O)cc2Sc2cc(-c3cc4ccccc4[nH]3)ccc21 [compound 262, 10-(3-aminopropyl)-7-(1H-indol-2-yl)-10H-phenothiazine-3-carboxylic acid trifluoro acetic acid]",–,32 µg/mL,> 128 µg/mL
"CC1CC(C)CN(c2ccc3c(c2)Sc2cc(C(F)(F)F)cc(NCCCNCCN)c2N3)C1.Cl (centres unmarked) [compound 346, N1-(2-aminoethyl)-N3-(7-(3,5-dimethylpiperidin-1-yl)-3-(trifluoromethyl)-10H-phenothiazin-1-yl) propane-1,3-diamine hydrochloride]",16 µg/mL,4 µg/mL,–
"NCCN1CCN(c2ccc3c(c2)Sc2cc(C(F)(F)F)cc(NC4CCNCC4)c2N3)CC1 [compound 269, 7-(4-(2-aminoethyl)piperazin-1-yl)-N-(piperidin-4-yl)-3-(trifluoromethyl)-10H-phenothiazin-1-amine hydrochloride]",–,16 µg/mL,64 µg/mL
"Cl.Cl.NCCN1CCC(Nc2cc(C(=O)N3CCCC3)cc3c2Nc2ccccc2S3)CC1 [compound 288, (1-(1-(2-aminoethyl)piperidin-4-ylamino)-10H-phenothiazin-3-yl)(pyrrolidin-1-yl)methanone]",–,128 µg/mL,128 µg/mL
"Cl.NC1CCCC(CNc2cc(C(F)(F)F)cc3c2Nc2ccc(Br)cc2S3)C1 (centres unmarked) [compound 343, N-((3-aminocyclohexyl)methyl)-7-bromo-3-(trifluoromethyl)-10H-phenothiazin-1-amine hydrochloride]",64 µg/mL,16 µg/mL,–
"Cl.Cl.Cl.NCCCN1c2ccc(Br)cc2Sc2cc(N3CCN(CCN)CC3)ccc21 [compound 278, 3-(3-(4-(2-aminoethyl)piperazin-1-yl)-7-bromo-10H-phenothiazin-10-yl)propan-1-amine hydrochloride]",128 µg/mL,32 µg/mL,–
"Cl.NCCNCCCNc1cc(C(F)(F)F)cc2c1Nc1ccc(N3CC4CCC3C4)cc1S2 (centres unmarked) [compound 350, N1-(7-(2-azabicyclo[2.2.1]heptan-2-yl)-3-(trifluoromethyl)-10H-phenothiazin-1-yl)-N3-(2-aminoethyl) propane-1,3-diamine hydrochloride]",8 µg/mL,4 µg/mL,–
"COC1CCN(c2ccc3c(c2)Sc2cc(C(F)(F)F)cc(NC4CCN(CCN)CC4)c2N3)C1.Cl.Cl (centres unmarked) [compound 321, N-(1-(2-aminoethyl)piperidin-4-yl)-7-(3-methoxy-pyrrolidin-1-yl)-3-(trifluoromethyl)-10H-phenothiazin-1-amine hydrochloride]",32 µg/mL,8 µg/mL,–
"Cl.NCCN1CCC(Nc2cc(C(F)(F)F)cc3c2Nc2ccc(N4CC5CCC4C5)cc2S3)CC1 (centres unmarked) [compound 327, N-(1-(2-aminoethyl)piperidin-4-yl)-7-(2-azabicyclo [2.2.1]heptan-2-yl)-3-(trifluoromethyl)-10H-phenothiazin-1-amine hydrochloride]",4 µg/mL,1 µg/mL,–
"Cl.Cl.NCCN1CCC(Nc2cc(C(=O)NNc3ccc(F)cc3)cc3c2Nc2ccccc2S3)CC1 [compound 280, 1-((1-(2-aminoethyl)piperidin-4-yl)amino)-N′-(4-fluorophenyl)-10H-phenothiazine-3-carbohydrazide hydrochloride]",64 µg/mL,16 µg/mL,–
CN(C)c1ccc2c(c1)Sc1cc(C(F)(F)F)cc(NC3CCN(CCN)CC3)c1N2.Cl [compound 334],16 µg/mL,4 µg/mL,–
"Cl.NCCNCCCNc1cc(C(F)(F)F)cc2c1Nc1ccc(N3CCC4CCCC43)cc1S2 (centres unmarked) [compound 351, N1-(2-aminoethyl)-N3-(7-(hexahydro-cyclopenta[b]pyrrol-1(2H)-yl)-3-(trifluoromethyl)-10H-phenothiazin-1-yl)propane-1,3-diamine hydrochloride]",16 µg/mL,4 µg/mL,–
"NC1CCCC(C(=O)Nc2cc(C(F)(F)F)cc3c2Nc2ccncc2S3)C1 (centres unmarked) [compound 257, 3-amino-N-(8-(trifluoromethyl)-5H-benzo[e]pyrido[3,4-b][1,4]thiazin-6-yl)cyclohexanecarboxamide]",128 µg/mL,64 µg/mL,–
